From patent publication US8080377B2, “Method for confirming the exposure on chrysene” (Korea Institute of Science and Technology, priority 2008, dated 2011)

Experiments:
HepG2 cells = test: 44 k whole human genome oligo microarray gene expression, cells treated with chrysene at IC20 for 48 hours (Cy5) vs untreated control (Cy3); format: cell-based
Experimental: HepG2 cells were distributed on a 100 mm dish at the concentration of 6×10^6 cell/ml, to which chrysene was treated for 48 hours at the concentration that was determined in Example <1-2>. Total RNA was extracted from the cells using trizol reagent (Invitrogen life technologies, USA) according to the manufacturer's instruction and the extracted RNA was purified by using RNeasy mini kit (Qiagen, USA). The genomic DNA was eliminated during the purification of RNA using RNase-free DNase set (Qiagen, USA). The total RNA was quantified by spectrophotometer and purity was measured by Agilent 2100 Bioanalyzer (Agilent Technologies, USA) and agarose gel-electrophoration.
For oligo-microarray analysis, cDNA was synthesized using the total RNA extracted from the experimental group treated with chrysene obtained in Example <2-1>. 30 μg of the total RNA and 2 μg (1 μg/μl) of oligo (dT) primer were mixed, followed by reaction for 10 minutes at 65° C. Then, the reaction mixture was put in ice, followed by annealing. Reagents were mixed as shown in Table 1 for reverse transcription of the RNA.
The total RNA extracted from the control HepG2 cell line was labeled with Cy3-dUTP (green), while the RNA extracted from the experimental HepG2 cell line treated with chrysene was labeled with Cy5-dUTP (red). At this time, the two samples were mixed and purified by Microcon YM-30 column (Millipore, USA).
Hybridization and washing were performed according to the instruction of GeneoCheck Co., Ltd. Hybridization was performed in a 62° C. oven for 12 hours. At this time, 44 k whole human genome oligo microarray (Agilent, USA) was used as a DNA microarray chip. After washing (with 2×SSC/0.1% SDS for 2 minutes, with 1×SSC for 3 minutes, with 0.2×SSC for 2 minutes), the slide was centrifuged at 800 rpm for 3 minutes and dried.
Scanning of the hybridized images on the slide was performed by using Genepix 4000B (Axon Instruments, USA). Fluorescence images of the chip washed to eliminate non-binding genes were obtained by laser fluorescence scanner. At this time, green fluorescent images indicated the activity of the gene expressed in the control, whereas red fluorescent images indicated the activity of the gene expressed specifically in the experimental group. […] The scanned images were analyzed by GenePix 4.1 software (Axon Instruments, USA) to calculate the gene expression rate. Based on the obtained data, marker genes for chrysene were selected (see FIG. 2).

[1] = system: salmonella TA110 and TA98 strains; details: even under normal metabolic activity of the liver (rats); cited from earlier work

c1ccc2c(c1)ccc1c3ccccc3ccc21 [chrysene]
Ratio of intermediate value (HepG2 cells; ACHE (NM_015831)): 6.223
Ratio of intermediate value (HepG2 cells; ADA (NM_000022)): 5.213
Ratio of intermediate value (HepG2 cells; ADM (NM_001124)): 2.186
Ratio of intermediate value (HepG2 cells; ADORA2B (AK172851)): 2.249
Ratio of intermediate value (HepG2 cells; APOL2 (AF324224)): 2.105
Ratio of intermediate value (HepG2 cells; APOL3 (NM_145641)): 3.196
Ratio of intermediate value (HepG2 cells; AXL (NM_021913)): 3.268
Ratio of intermediate value (HepG2 cells; B2M (NM_004048)): 2.006
Ratio of intermediate value (HepG2 cells; BATF (BQ053419)): 2.221
Ratio of intermediate value (HepG2 cells; BTG3 (BC011957)): 2.74
Ratio of intermediate value (HepG2 cells; C1R (NM_001733)): 2.893
Ratio of intermediate value (HepG2 cells; C1S (NM_001734)): 3.018
Ratio of intermediate value (HepG2 cells; C4A (NM_001002029)): 2.002
Ratio of intermediate value (HepG2 cells; C20orf139 (H18681)): 4.383
Ratio of intermediate value (HepG2 cells; CCL3 (CR591007)): 3.347
Ratio of intermediate value (HepG2 cells; CCL3L1 (BF662985)): 2.839
Ratio of intermediate value (HepG2 cells; CCL14 (NM_004167)): 5.103
Ratio of intermediate value (HepG2 cells; CCL20 (BC020698)): 2.199
Ratio of intermediate value (HepG2 cells; CCL23 (NM_005064)): 2.761
Ratio of intermediate value (HepG2 cells; CCND3 (AK096276)): 2.292
Ratio of intermediate value (HepG2 cells; CD3D (NM_000732)): 54.94
Ratio of intermediate value (HepG2 cells; CD9 (NM_001769)): 4.153
Ratio of intermediate value (HepG2 cells; CD58 (NM_001779)): 2.794
Ratio of intermediate value (HepG2 cells; CD79B (AK223210)): 15.33
Ratio of intermediate value (HepG2 cells; CDKN2B (NM_078487)): 2.559
Ratio of intermediate value (HepG2 cells; CSF1 (BC021117)): 4.788
Ratio of intermediate value (HepG2 cells; CXCL12 (AK090482)): 2.842
Ratio of intermediate value (HepG2 cells; DDX58 (NM_014314)): 2.333
Ratio of intermediate value (HepG2 cells; DKFZp451C2311 (AL832451)): 2.639
Ratio of intermediate value (HepG2 cells; DNAJA2 (AF116720)): 10.94
Ratio of intermediate value (HepG2 cells; DNAJB2 (BC040494)): 2.053
Ratio of intermediate value (HepG2 cells; DNAJB4 (AB209922)): 2.872
Ratio of intermediate value (HepG2 cells; DUSP1 (AK127679)): 2.383
Ratio of intermediate value (HepG2 cells; DUSP13 (NM_001007271)): 7.031
Ratio of intermediate value (HepG2 cells; E2F7 (NM_203394)): 3.647
Ratio of intermediate value (HepG2 cells; EBI3 (NM_005755)): 5.607
Ratio of intermediate value (HepG2 cells; ELF4 (NM_001421)): 4.316
Ratio of intermediate value (HepG2 cells; F2RL1 (NM_005242)): 2.258
Ratio of intermediate value (HepG2 cells; F8 (NM_000132)): 2.415
Ratio of intermediate value (HepG2 cells; FAM14A (NM_032036)): 2.706
Ratio of intermediate value (HepG2 cells; FOS (BX647104)): 2.287
Ratio of intermediate value (HepG2 cells; FOSL1 (NM_005438)): 5.643
Ratio of intermediate value (HepG2 cells; GPX1 (NM_201397)): 2.85
Ratio of intermediate value (HepG2 cells; GPX2 (BE512691)): 2.014
Ratio of intermediate value (HepG2 cells; HLA-DOA (NM_002119)): 4.209
Ratio of intermediate value (HepG2 cells; HRAS (NM_005343)): 2.3
Ratio of intermediate value (HepG2 cells; HSPA4L (NM_014278)): 4.71
Ratio of intermediate value (HepG2 cells; HSPA8 (NM_006597)): 2.313
Ratio of intermediate value (HepG2 cells; HSPCA (AJ890082)): 2.544
Ratio of intermediate value (HepG2 cells; ICOSLG (CB055213)): 3.644
Ratio of intermediate value (HepG2 cells; IL4R (NM_000418)): 2.254
Ratio of intermediate value (HepG2 cells; IL11 (NM_000641)): 4.521
Ratio of intermediate value (HepG2 cells; ITCH (NM_031483)): 2.301
Ratio of intermediate value (HepG2 cells; KLF6 (NM_001008490)): 2.3
Ratio of intermediate value (HepG2 cells; KLRC3 (NM_002260)): 2.942
Ratio of intermediate value (HepG2 cells; LIF (NM_002309)): 8.088
Ratio of intermediate value (HepG2 cells; LY96 (BM918324)): 5.439
Ratio of intermediate value (HepG2 cells; MAPK11 (BC027933)): 2.256
Ratio of intermediate value (HepG2 cells; MAPK13 (AB209586)): 2.326
Ratio of intermediate value (HepG2 cells; MBL2 (NM_000242)): 2.755
Ratio of intermediate value (HepG2 cells; MGC3207 (AL834276)): 2.364
Ratio of intermediate value (HepG2 cells; MR1 (AF031469)): 7.059
Ratio of intermediate value (HepG2 cells; NALP6 (AY154461)): 2.392
Ratio of intermediate value (HepG2 cells; NFKBIA (NM_020529)): 2.242
Ratio of intermediate value (HepG2 cells; NINJ1 (NM_004148)): 2.107
Ratio of intermediate value (HepG2 cells; NK4 (BF569086)): 3.138
Ratio of intermediate value (HepG2 cells; NR3C1 (U25029)): 2.274
Ratio of intermediate value (HepG2 cells; OAS1 (NM_016816)): 3.711
Ratio of intermediate value (HepG2 cells; PAI, PAI1, PAI-1, PLANH1 (BX649164)): 29.05
Ratio of intermediate value (HepG2 cells; PARD6B (BC060847)): 2.507
Ratio of intermediate value (HepG2 cells; PARD6G (BC060797)): 3.502
Ratio of intermediate value (HepG2 cells; PGF (NM_002632)): 2.436
Ratio of intermediate value (HepG2 cells; PPM1D (NM_003620)): 3.647
Ratio of intermediate value (HepG2 cells; PPP1R9B (BC008564)): 3.169
Ratio of intermediate value (HepG2 cells; PRNP (NM_000311)): 2.313
Ratio of intermediate value (HepG2 cells; PROCR (NM_006404)): 24.53
Ratio of intermediate value (HepG2 cells; PTGES (AK127663)): 3.184
Ratio of intermediate value (HepG2 cells; PTP4A1 (BC040303)): 3.183
Ratio of intermediate value (HepG2 cells; RAE1 (AK097024)): 2.921
Ratio of intermediate value (HepG2 cells; RPS6KA1 (BC014966)): 2.11
Ratio of intermediate value (HepG2 cells; S100A6 (BM904612)): 5.938
Ratio of intermediate value (HepG2 cells; SAA4 (BG564326)): 4.076
Ratio of intermediate value (HepG2 cells; SASH1 (NM_015278)): 2.368
Ratio of intermediate value (HepG2 cells; SEMA7A (AF069493)): 2.531
Ratio of intermediate value (HepG2 cells; SERTAD1 (AK074652)): 4.835
Ratio of intermediate value (HepG2 cells; SFN (BC023552)): 2.525
Ratio of intermediate value (HepG2 cells; SGK2 (BC006523)): 4.65
Ratio of intermediate value (HepG2 cells; STAT1 (NM_007315)): 2.268
Ratio of intermediate value (HepG2 cells; TAP1 (BX648013)): 4.08
Ratio of intermediate value (HepG2 cells; TAPBP (NM_172208)): 7.02
Ratio of intermediate value (HepG2 cells; TGFA (NM_003236)): 2.487
Ratio of intermediate value (HepG2 cells; TLR3 (BC068487)): 2.541
Ratio of intermediate value (HepG2 cells; TMPRSS6 (NM_153609)): 2.118
Ratio of intermediate value (HepG2 cells; TP53I11 (BC045666)): 6.008
Ratio of intermediate value (HepG2 cells; TREM2 (NM_018965)): 43.67
Ratio of intermediate value (HepG2 cells; TRIM22 (BC035582)): 13.79
Ratio of intermediate value (HepG2 cells; VWF (NM_000552)): 2.476
Ratio of intermediate value (HepG2 cells; XLKD1 (NM_006691)): 10.06
Ratio of intermediate value (HepG2 cells; ZAP70 (AL832287)): 3.83
Ratio of intermediate value (HepG2 cells; ZCSL2 (AK092040)): 2.303
genes identified to be down-regulated (2.0 fold less) (HepG2 cells; out of 44,000 genes): 0.82%
genes identified to be up-regulated (2.0 fold higher) (HepG2 cells; out of 44,000 genes): 0.73%
number of genes identified to be down-regulated (HepG2 cells; out of 44,000 genes): 361 genes
number of genes identified to be up-regulated (HepG2 cells; out of 44,000 genes): 323 genes
mutagenicity in Ames tests [1]: showed mutagenicity
